Laboratory results: patent US20080045796A1, “HISTOFLUORESCENT STAIN COMPOSITION FOR ENDOSCOPY” (PENTAX CORPORATION, priority 2006, published 2008)

Experiments:
[1] = test system: large intestine of a mouse; assay: Stainability: stain solution injected into large intestine, confocal cross-section of the lumen; settings: 1.0 mg/mL, pH 6, 100 μL injected; images at every 5.0 μm from the luminal surface
Experimental: Fast Green FCF was prepared to 1.0 mg/mL using a 0.1 M sodium phosphate buffer solution (pH 6), and 100 μL of the stain solution was injected into the large intestine of a mouse (ddY, 11 weeks old, male). To stain the large intestine evenly while preventing outflow of the stain, the mouse was subjected to laparotomy, and the stain was injected while clipping the upward colon side and the downward colon side of the extracted large intestine with hemostatic clips.
The imaging conditions were such that the diameter of the confocal pinhole was 1.00 airy, and a lens of 20 magnifications was used.

Duodenum = assay: Tail vein administration, stainability for different regions: duodenum; format: in vivo, mouse
Experimental: (§1) An evaluation of the tissue stain composition of the present invention was performed for the stainability for different regions. Duodenum, large intestine and liver were extracted and observed.
(§2) Fast Green FCF was prepared to 10 mg/mL using physiological saline at pH 6.0. 100 μL of the prepared Fast Green FCF was administered to a mouse (ddY, 11 weeks old, male) through the tail vein, and the mouse was subjected to laparotomy after 5 minutes. The penetrability was observed by naked eyes, and the stainability and fluorescence were observed using a confocal microscope (Leica Microsystems Corp., TCP-SP2).
The conditions for the confocal microscopic observation were such that the diameter of the confocal pinhole was 1.00 airy, and an oil immersion lens of 63 magnifications was used.

[2] = Measurement of absorption spectrum and fluorescence excitation spectrum; format: physicochemical
Experimental: Measurement of an absorption spectrum and a fluorescence excitation spectrum of Fast Green FCF was performed. The Fast Green FCF (Wako Pure Chemical Industries, Ltd.) was adjusted to 1.0 mg/ml, and the light absorbance was continuously measured at a wavelength of from 200 to 750 nm using a spectrophotometer (manufactured by Shimadzu Corp., BioSpec-1600) to determine the wavelength at which the absorbance reached the maximum. The maximum absorption wavelength of 628 nm thus obtained was irradiated as an excitation wavelength, and the wavelength of the scattered light detected in the perpendicular direction to the light axis of the excitation light was measured using a fluorescence spectrophotometer (manufactured by Shimadzu Corp., RF-1500), thus to obtain a maximum excitation wavelength of 628 nm and a maximum fluorescence wavelength of 652 nm.

large intestine = assay: Tail vein administration, stainability for different regions: large intestine; format: in vivo, mouse; settings: 10 mg/mL, 100 μL tail vein, laparotomy after 5 minutes
Experimental: as §1, §2
(§3) The conditions for the confocal microscopic observation were such that the diameter of the confocal pinhole was 1.00 airy, and a cross-sectional image of an area about 10 μm deep from the luminal surface, which image was taken using an oil immersion lens of 63 magnifications, is presented in FIG. 11.

[3] = test system: large intestine extracted from a mouse; assay: Stainability and tissue penetrability, fluorescence observation of frozen sections; settings: 6 μm frozen sections, stained as in Example 3
From the text: The stainability and tissue penetrability of Fast Green FCF (Fast Green GCF, Wako Pure Chemical Industries, Ltd.) were checked by observation of a tissue specimen.
A tissue specimen of the large intestine extracted from a mouse, which had been stained in the same manner as in Example 3, was embedded in an OCT Compound (Sakura Finetek Corp., Tissue-Tek O.C.T. compound), and was frozen by rapidly cooling with dry ice. The frozen section was sliced into 6 μm to prepare frozen sections, and fluorescence observation was performed. The fluorescence observation was performed using a confocal microscope (Leica Microsystems Corp., TCP-SP2) (imaging conditions: using a lens of 40 magnifications, pinhole diameter 171.3 μm).
A tissue section which was similarly embedded in the OCT compound was HE-stained, and the observation result is shown in FIG. 9 as a Comparative Example.

mouse large intestine = assay: Confocal microscope observation of extracted large intestine piece stained with the stain (stain specificity)
Experimental: In order to find the stain specificity of the stain, Fast Green FCF (Wako Pure Chemical Industries, Ltd.) was diluted to a 2.0 mg/mL preparation using a 0.1 M sodium phosphate buffer solution (pH 7), and observation was performed using a confocal microscope (Leica Microsystems Corp., TCS-SP2).
For the sample, a mouse was subjected to laparotomy to extract the large intestine, which was then cut into a piece of 1 cm at every edge and stained with the stain.
The diameter of the confocal pinhole was 1.00 airy, and an oil immersion lens of 63 magnifications was used.
Staining was performed by immersion in the same manner as in Example 2, excitation was induced at a wavelength of 488 nm, and the fluorescent images were observed.
The conditions for the confocal microscope were the same, except for the wavelength of the irradiated laser.

liver = assay: Tail vein administration, stainability for different regions: liver; format: in vivo, mouse
Experimental: as §1, §2
as §3, with “Furthermore, the surrounding septum was more strongly stained. The” for “The”, “area” for “area about”, “12.” for “11.”

[4] = test system: tumor tissue developed in the upper part of the ovary of a rat; assay: Extracted tumor tissue immersed in stain, confocal microscope observation (single and double staining)
Experimental: Fast Green FCF was prepared to 1.0 mg/mL using a 0.1 M sodium phosphate buffer solution (pH 7).
The tumor tissue of the rat was extracted and immersed in the prepared stain for 5 minutes to stain the tissue. The remaining unpenetrated portion of the Fast Green was washed off with a 0.1 M sodium phosphate buffer solution (pH 6), and observation was made using a confocal microscope.
The observation conditions were such that the pinhole diameter was 1.00 airy, and an oil immersion lens of 63 magnifications was used.
To verify the stainability at a tumor part, Monascus Yellow was used together with Fast Green FCF to perform double staining. The Monascus Yellow was prepared to 1.0 mg/mL using a 0.1 M sodium phosphate buffer solution (pH 6).

[5] = 10 mg/mL, 100 μL tail vein, laparotomy after 5 minutes

can be excited at, for example [2]: 628 nm
fluorescence detected at [2]: 652 nm
maximum absorption wavelength ([2]; 1.0 mg/ml, spectrophotometer 200 to 750 nm): 628 nm
maximum excitation wavelength ([2]; fluorescence spectrophotometer): 628 nm
maximum fluorescence wavelength ([2]; fluorescence spectrophotometer): 652 nm
SMILES: CCN(Cc1cccc(S(=O)(=O)[O-])c1)c1ccc(C(=C2C=CC(=[N+](CC)Cc3cccc(S(=O)(=O)[O-])c3)C=C2)c2ccc(O)cc2S(=O)(=O)[O-])cc1.[Na+].[Na+] [Fast Green FCF]
fluorescent contrast in confocal cross-sectional images [1]: provides good fluorescent contrast for the lamina propria mucosae
staining site under confocal microscope (Duodenum; [5]): Strong staining was achieved not in the cytoplasm but in the cellular membrane or intercellular space
staining visible by naked eyes (Duodenum; [5]): stained in deep-green color to an extent of being clearly visible by naked eyes
fluorescent contrast under a confocal microscope (Duodenum; epithelial cells): provides clear fluorescent contrast for the shape of the epithelial cells
contrast under a white light source (Duodenum; small intestinal villi): conferred contrast such that observation of the small intestinal villi under a white light source became feasible
color change visible by naked eyes (large intestine): did not show color changes that were clear enough to be visible by naked eyes
penetration of the dye (large intestine): the dye penetrated sufficiently to the extent that imaging by a confocal imaging system was possible
staining site under confocal microscope (large intestine): The intercellular space near the luminal surface, and the lamina propria mucosae were well stained
fluorescent contrast in frozen section, compared with HE staining [3]: provided good fluorescent contrast for the lamina propria mucosae
fluorescent contrast in confocal image (mouse large intestine; 2.0 mg/mL, pH 7, He-Ne laser 633 nm, fluorescence 650 to 750 nm): provided fluorescent contrast to the images of the intercellular space of the mucosal epithelium of the large intestine
chromophilic regions, Fast Green FCF versus Fluorescite (mouse large intestine; Fluorescite excited at 488 nm, single and double-stained images): the stain and Fluorescite had different chromophilic regions
staining site under confocal microscope (liver; [5]): not only the intercellular space and cellular membrane as observed in the duodenum or large intestine but also the lobular parts were stained
fluorescent contrast under confocal microscope (liver; connective tissue in the liver): provided good contrast for the Glisson's capsule
fluorescent contrast in confocal images ([4]; 1.0 mg/mL, pH 7, immersed 5 minutes): provided good fluorescent contrast for the connective tissue fibers in the tumor tissue
staining site in double staining ([4]; Monascus Yellow 1.0 mg/mL pH 6 together with Fast Green FCF): slightly stained the cells but more strongly stained the fibrous part
